Source: publication PMC8037182, “Solvothermal Synthesis of Multiple Dihydropyrimidinones at a Time as Inhibitors of Eg5” (Molecules, 2021)
pIC50, pKi: −log10 of the molar value.

Tests used:
[1] = biological target: T1, Eg5 motor protein (Homo sapiens, UniProt P52732); test: Lineweaver–Burk plot analysis of Eg5 ATPase inhibition; type: biochemical
T1 construct: Eg5 motor domain (amino acids 1-368) was cloned into pET22b; His-tag (C); made in house; host or cells: Escherichia coli BL21 (DE3)
T1 sequence (P52732 1-368): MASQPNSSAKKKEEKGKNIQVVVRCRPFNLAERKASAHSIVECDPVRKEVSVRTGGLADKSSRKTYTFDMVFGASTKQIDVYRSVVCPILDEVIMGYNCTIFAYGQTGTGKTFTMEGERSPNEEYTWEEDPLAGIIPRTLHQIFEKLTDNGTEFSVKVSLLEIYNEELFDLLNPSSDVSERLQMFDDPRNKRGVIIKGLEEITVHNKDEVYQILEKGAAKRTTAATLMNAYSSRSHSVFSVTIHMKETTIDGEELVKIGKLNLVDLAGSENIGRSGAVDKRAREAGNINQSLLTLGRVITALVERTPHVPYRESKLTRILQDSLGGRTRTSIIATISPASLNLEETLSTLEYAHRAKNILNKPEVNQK
Procedure: Assays followed methods similar to that described above for the primary Eg5 motor protein ATPase assay. For either study, compound C9 were tested at 60.50 μM, 30.25 μM, 15.13 μM, 0 μM. ATP concentration was varied from 52 μM to 417 μM. The enzyme concentration tested was 100 nM. All conditions were performed in three independent duplicate experiments. The data were analyzed with GraphPad Prism 6.02 software.
Figure 1 Steady-state inhibition of Eg5 by C9. […] Lines represent a curve fit of the global data set to a mixed-type inhibition model.

[2] = test system: L929 cell line; test: Cytotoxicity MTS assay, L929 cell line; type: cell-based; conditions: for OD490 values, Mean / OD490 values, Well 1 / OD490 values, Well 2 / OD490 values, Well 3: L929 cell line
Summary of the method: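 Steps: plate 1000 cells per well; incubate 24 h; add compound (final 0.5 to 100 µM) or 0.025% DMSO blank for 24 h; add MTS reagent, hold 2 h at 37 °C in 5% CO2; read A490; fit percent viability against concentration by non-linear regression to obtain IC50.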

Slope of the Lineweaver-Burk plot, Mean ([1]; C9 15.13 uM): 0.649
OD630 Value Mean ([1]; C9 15.13 uM, ATP 0.052 mM): 0.142
OD630 Value Mean ([1]; C9 15.13 uM, ATP 0.104 mM): 0.177
OD630 Value Mean ([1]; C9 15.13 uM, ATP 0.209 mM): 0.199
OD630 Value Mean ([1]; C9 15.13 uM, ATP 0.313 mM): 0.226
OD630 Value Mean ([1]; C9 15.13 uM, ATP 0.417 mM): 0.268
Slope of the Lineweaver-Burk plot, Mean ([1]; C9 30.25 uM): 0.942
OD630 Value Mean ([1]; C9 30.25 uM, ATP 0.052 mM): 0.126
OD630 Value Mean ([1]; C9 30.25 uM, ATP 0.104 mM): 0.155
OD630 Value Mean ([1]; C9 30.25 uM, ATP 0.209 mM): 0.174
OD630 Value Mean ([1]; C9 30.25 uM, ATP 0.313 mM): 0.197
OD630 Value Mean ([1]; C9 30.25 uM, ATP 0.417 mM): 0.231
Slope of the Lineweaver-Burk plot, Mean ([1]; C9 60.50 uM): 1.374
OD630 Value Mean ([1]; C9 60.5 uM, ATP 0.052 mM): 0.114
OD630 Value Mean ([1]; C9 60.5 uM, ATP 0.104 mM): 0.138
OD630 Value Mean ([1]; C9 60.5 uM, ATP 0.209 mM): 0.156
OD630 Value Mean ([1]; C9 60.5 uM, ATP 0.313 mM): 0.171
OD630 Value Mean ([1]; C9 60.5 uM, ATP 0.417 mM): 0.198
type of Eg5 inhibition ([1]; Lineweaver–Burk plot, ATP varied 52–417 μM): mixed-type Eg5 inhibitor
pKi ([1]; secondary plot of Lineweaver–Burk plot, slope versus concentration): 4.80
melting point: 253 to 257 °C
SMILES: CCOc1ccccc1C1NC(=S)NC(C)=C1C(=O)Nc1ccc(Cl)cc1 (stereo not shown) [C9]
OD490 values, Mean ([2]; 0.5μM, first assay): 1.3120
OD490 values, Well 1 ([2]; 0.5μM, first assay): 1.2051
OD490 values, Well 2 ([2]; 0.5μM, first assay): 1.4334
OD490 values, Well 3 ([2]; 0.5μM, first assay): 1.2976
OD490 values, Mean ([2]; 0.5μM, second assay): 1.7414
OD490 values, Well 1 ([2]; 0.5μM, second assay): 1.7956
OD490 values, Well 2 ([2]; 0.5μM, second assay): 1.7365
OD490 values, Well 3 ([2]; 0.5μM, second assay): 1.6920
OD490 values, Mean ([2]; 0.5μM, third assay): 1.5324
OD490 values, Well 1 ([2]; 0.5μM, third assay): 1.5628
OD490 values, Well 2 ([2]; 0.5μM, third assay): 1.4792
OD490 values, Well 3 ([2]; 0.5μM, third assay): 1.5552
OD490 values, Mean ([2]; 1μM, first assay): 1.2882
OD490 values, Well 1 ([2]; 1μM, first assay): 1.1921
OD490 values, Well 2 ([2]; 1μM, first assay): 1.2906
OD490 values, Well 3 ([2]; 1μM, first assay): 1.3820
OD490 values, Mean ([2]; 1μM, second assay): 1.7491
OD490 values, Well 1 ([2]; 1μM, second assay): 1.7526
OD490 values, Well 2 ([2]; 1μM, second assay): 1.7963
OD490 values, Well 3 ([2]; 1μM, second assay): 1.6985
OD490 values, Mean ([2]; 1μM, third assay): 1.5501
OD490 values, Well 1 ([2]; 1μM, third assay): 1.5147
OD490 values, Well 2 ([2]; 1μM, third assay): 1.6354
OD490 values, Well 3 ([2]; 1μM, third assay): 1.5001
OD490 values, Mean ([2]; 10μM, first assay): 1.2539
OD490 values, Well 1 ([2]; 10μM, first assay): 1.1842
OD490 values, Well 2 ([2]; 10μM, first assay): 1.1521
OD490 values, Well 3 ([2]; 10μM, first assay): 1.4254
OD490 values, Mean ([2]; 10μM, second assay): 1.6826
OD490 values, Well 1 ([2]; 10μM, second assay): 1.6658
OD490 values, Well 2 ([2]; 10μM, second assay): 1.5966
OD490 values, Well 3 ([2]; 10μM, second assay): 1.7854
OD490 values, Mean ([2]; 10μM, third assay): 1.5957
OD490 values, Well 1 ([2]; 10μM, third assay): 1.5987
OD490 values, Well 2 ([2]; 10μM, third assay): 1.6038
OD490 values, Well 3 ([2]; 10μM, third assay): 1.5847
OD490 values, Mean ([2]; 25μM, first assay): 1.1905
OD490 values, Well 1 ([2]; 25μM, first assay): 1.1608
OD490 values, Well 2 ([2]; 25μM, first assay): 1.2406
OD490 values, Well 3 ([2]; 25μM, first assay): 1.1701
OD490 values, Mean ([2]; 25μM, second assay): 1.4962
OD490 values, Well 1 ([2]; 25μM, second assay): 1.4563
OD490 values, Well 2 ([2]; 25μM, second assay): 1.5624
OD490 values, Well 3 ([2]; 25μM, second assay): 1.4698
OD490 values, Mean ([2]; 25μM, third assay): 1.3392
OD490 values, Well 1 ([2]; 25μM, third assay): 1.3256
OD490 values, Well 2 ([2]; 25μM, third assay): 1.3332
OD490 values, Well 3 ([2]; 25μM, third assay): 1.3587
OD490 values, Mean ([2]; 50μM, first assay): 1.0589
OD490 values, Well 1 ([2]; 50μM, first assay): 1.0389
OD490 values, Well 2 ([2]; 50μM, first assay): 1.0906
OD490 values, Well 3 ([2]; 50μM, first assay): 1.0471
OD490 values, Mean ([2]; 50μM, second assay): 1.2280
OD490 values, Well 1 ([2]; 50μM, second assay): 1.2236
OD490 values, Well 2 ([2]; 50μM, second assay): 1.2635
OD490 values, Well 3 ([2]; 50μM, second assay): 1.1968
OD490 values, Mean ([2]; 50μM, third assay): 1.1793
OD490 values, Well 1 ([2]; 50μM, third assay): 1.1416
OD490 values, Well 2 ([2]; 50μM, third assay): 1.2010
OD490 values, Well 3 ([2]; 50μM, third assay): 1.1952
OD490 values, Mean ([2]; 100μM, first assay): 0.6738
OD490 values, Well 1 ([2]; 100μM, first assay): 0.6518
OD490 values, Well 2 ([2]; 100μM, first assay): 0.6916
OD490 values, Well 3 ([2]; 100μM, first assay): 0.6781
OD490 values, Mean ([2]; 100μM, second assay): 0.7959
OD490 values, Well 1 ([2]; 100μM, second assay): 0.7856
OD490 values, Well 2 ([2]; 100μM, second assay): 0.7958
OD490 values, Well 3 ([2]; 100μM, second assay): 0.8062
OD490 values, Mean ([2]; 100μM, third assay): 0.7698
OD490 values, Well 1 ([2]; 100μM, third assay): 0.8020
OD490 values, Well 2 ([2]; 100μM, third assay): 0.7321
OD490 values, Well 3 ([2]; 100μM, third assay): 0.7754
pIC50 ([2]; Mus musculus, L929, MTS assay, 24 h exposure, ordinary fibroblast, not cancer cells): 4.07
